In US20100267561A1, “HERBICIDAL PYRIDAZINONE DERIVATIVES” (priority 2007, published 2010):

How the values were obtained:
Assay in all cases: Test B pre-/postemergence plant response
Format in all cases: in vivo
[1] = tested on: blackgrass (Alopecurus myosuroides)
Outline: (§1)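 Preemergence and postemergence (plants 2-18 cm, 1- to 4-leaf stage) applications used test chemicals in a non-phytotoxic solvent with surfactant. Plants were held in a greenhouse 13 to 15 days, then rated visually against controls on a 0-100 scale (0 no effect, 100 complete control).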

[2] = tested on: catchweed bedstraw (Galium aparine); conditions: Preemergence, scale 0 to 100
Outline: as §1

[3] = tested on: cocklebur (Xanthium strumarium)
Outline: as §1

[4] = tested on: common ragweed (Ambrosia elation)
Outline: as §1

corn (Zea mays) = tested on: corn (Zea mays)
Outline: as §1

[5] = tested on: green foxtail (Setaria viridis)
Outline: as §1

kochia (Kochia scoparia) = tested on: kochia (Kochia scoparia)
Outline: as §1

[6] = tested on: lambsquarters (Chenopodium album)
Outline: as §1

[7] = tested on: large crabgrass (Digitaria sanguinalis)
Outline: as §1

[8] = tested on: pigweed (Amaranthus retroflexus)
Outline: as §1

[9] = tested on: velvetleaf (Abutilon theophrasti)
Outline: as §1

wild oat (Avena fatua) = tested on: wild oat (Avena fatua)
Outline: as §1

[10] = tested on: woolly cupgrass (Eriochloa villosa)
Outline: as §1

[11] = tested on: yellow nutsedge (Cyperus esculentus)
Outline: as §1

[12] = Postemergence, 31 g ai/ha, scale 0 to 100, 0 no effect, 100 complete control
[13] = Postemergence, 62 g ai/ha, scale 0 to 100
[14] = Postemergence, 125 g ai/ha, scale 0 to 100
[15] = Postemergence, 250 g ai/ha, scale 0 to 100
[16] = Preemergence, 31 g ai/ha, 0 to 100 scale, 0 no effect, 100 complete control
[17] = Preemergence, 62 g ai/ha, scale 0 to 100
[18] = Preemergence, 125 g ai/ha, scale 0 to 100
[19] = Preemergence, 250 g ai/ha, scale 0 to 100

5-[3-(4-chlorophenyl)-5-methyl-1H-pyrazol-1-yl]-1,6-dihydro-1-methyl-6-oxo-4-pyridazinyl-1-methylethyl carbonate [Compound 7]
30: Plant response rating, Lambsquarters [6, 16] | Plant response rating, Lambsquarters [6, 17]
90: Plant response rating, Blackgrass [1, 13] | Plant response rating, Corn (corn (Zea mays); [12]) | Plant response rating, Corn (corn (Zea mays); [13]) | Plant response rating, Corn (corn (Zea mays); [14]) | Plant response rating, Corn (corn (Zea mays); [15]) | Plant response rating, Corn (corn (Zea mays); [16]) | Plant response rating, Lambsquarters [6, 18]
75: Plant response rating, Foxtail, Green [5, 12]
0: Plant response rating, Galium ([2]; 62 g ai/ha) | Plant response rating, Cocklebur [3, 12] | Plant response rating, Cocklebur [3, 13] | Plant response rating, Cocklebur [3, 14] | Plant response rating, Cocklebur [3, 15] | Plant response rating, Cocklebur [3, 16] | Plant response rating, Cocklebur [3, 17] | Plant response rating, Cocklebur [3, 18] | Plant response rating, Cocklebur [3, 19] | Plant response rating, Ragweed [4, 12] | Plant response rating, Ragweed [4, 13] | Plant response rating, Ragweed [4, 14] | Plant response rating, Ragweed [4, 15] | Plant response rating, Ragweed [4, 16] | Plant response rating, Ragweed [4, 17] | Plant response rating, Ragweed [4, 18] | Plant response rating, Kochia (kochia (Kochia scoparia); [12]) | Plant response rating, Kochia (kochia (Kochia scoparia); [13]) | Plant response rating, Kochia (kochia (Kochia scoparia); [14]) | Plant response rating, Kochia (kochia (Kochia scoparia); [16]) | Plant response rating, Kochia (kochia (Kochia scoparia); [17]) | Plant response rating, Kochia (kochia (Kochia scoparia); [18]) | Plant response rating, Kochia (kochia (Kochia scoparia); [19]) | Plant response rating, Lambsquarters [6, 12] | Plant response rating, Lambsquarters [6, 13] | Plant response rating, Lambsquarters [6, 14] | Plant response rating, Pigweed [8, 12] | Plant response rating, Pigweed [8, 13] | Plant response rating, Pigweed [8, 14] | Plant response rating, Velvetleaf [9, 12] | Plant response rating, Velvetleaf [9, 13] | Plant response rating, Velvetleaf [9, 14] | Plant response rating, Velvetleaf [9, 15] | Plant response rating, Velvetleaf [9, 16] | Plant response rating, Velvetleaf [9, 17] | Plant response rating, Velvetleaf [9, 18] | Plant response rating, Velvetleaf [9, 19] | Plant response rating, Oat, Wild (wild oat (Avena fatua); [16]) | Plant response rating, Nutsedge, Yellow [11, 12] | Plant response rating, Nutsedge, Yellow [11, 13] | Plant response rating, Nutsedge, Yellow [11, 14] | Plant response rating, Nutsedge, Yellow [11, 15] | Plant response rating, Nutsedge, Yellow [11, 16] | Plant response rating, Nutsedge, Yellow [11, 17] | Plant response rating, Nutsedge, Yellow [11, 18] | Plant response rating, Nutsedge, Yellow [11, 19]
95: Plant response rating, Corn (corn (Zea mays); [17]) | Plant response rating, Oat, Wild (wild oat (Avena fatua); [12]) | Plant response rating, Oat, Wild (wild oat (Avena fatua); [13]) | Plant response rating, Oat, Wild (wild oat (Avena fatua); [14]) | Plant response rating, Oat, Wild (wild oat (Avena fatua); [15])
80: Plant response rating, Galium ([2]; 125 g ai/ha) | Plant response rating, Galium ([2]; 250 g ai/ha) | Plant response rating, Oat, Wild (wild oat (Avena fatua); [18])
10: Plant response rating, Kochia (kochia (Kochia scoparia); [15]) | Plant response rating, Lambsquarters [6, 15]
100: Blackgrass plant response rating ([1]; 250 g ai/ha, preemergence, 0-100 scale) | Plant response rating, Blackgrass [1, 14] | Plant response rating, Blackgrass [1, 15] | Plant response rating, Blackgrass [1, 18] | Plant response rating, Corn (corn (Zea mays); [19]) | Plant response rating, Foxtail, Green [5, 13] | Plant response rating, Foxtail, Green [5, 14] | Plant response rating, Foxtail, Green [5, 15] | Plant response rating, Foxtail, Green [5, 16] | Plant response rating, Foxtail, Green [5, 17] | Plant response rating, Foxtail, Green [5, 18] | Plant response rating, Foxtail, Green [5, 19] | Plant response rating, Lambsquarters [6, 19] | Plant response rating, Crabgrass, Large [7, 12] | Plant response rating, Crabgrass, Large [7, 13] | Plant response rating, Crabgrass, Large [7, 14] | Plant response rating, Crabgrass, Large [7, 15] | Plant response rating, Crabgrass, Large [7, 16] | Plant response rating, Crabgrass, Large [7, 17] | Plant response rating, Crabgrass, Large [7, 18] | Plant response rating, Crabgrass, Large [7, 19] | Plant response rating, Pigweed [8, 17] | Plant response rating, Pigweed [8, 18] | Plant response rating, Cupgrass, Woolly [10, 12] | Plant response rating, Cupgrass, Woolly [10, 13] | Plant response rating, Cupgrass, Woolly [10, 14] | Plant response rating, Cupgrass, Woolly [10, 15] | Plant response rating, Cupgrass, Woolly [10, 19]
85: Plant response rating, Blackgrass [1, 12] | Plant response rating, Blackgrass [1, 17] | Plant response rating, Pigweed [8, 16] | Plant response rating, Oat, Wild (wild oat (Avena fatua); [19]) | Plant response rating, Cupgrass, Woolly [10, 18]
20: Plant response rating, Ragweed [4, 19] | Plant response rating, Pigweed [8, 15]
70: Plant response rating, Blackgrass [1, 16] | Plant response rating, Oat, Wild (wild oat (Avena fatua); [17]) | Plant response rating, Cupgrass, Woolly [10, 16] | Plant response rating, Cupgrass, Woolly [10, 17]
98: Plant response rating, Corn (corn (Zea mays); [18])
